Test results reported in US20240148821A1, “PHARMACEUTICAL USE OF CYCLIC PEPTIDE COMPOUND” (CHUGAI SEIYAKU KABUSHIKI KAISHA, priority 2021, published 2024).
Numbered stars: 1 amine (or outer) side, 2 acyl side, 3 side chain; on linkers, the order of the positions; unused ones are H or OH. Bridge positions count the residues as written; N and C are the ends. Square brackets hold non-standard residues; d marks the D form. Peptide text beside a SMILES is read from it. * marks the point of attachment. hPhe(3,5-F2-4-CF3) = N[C@@H](CCc1cc(F)c(C(F)(F)F)c(F)c1)C(=O)O; hPhe(3-Cl-4-CF3) = N[C@@H](CCc1ccc(C(F)(F)F)c(Cl)c1)C(=O)O; NMePhe(4-CF3) = CN[C@@H](Cc1ccc(C(F)(F)F)cc1)C(=O)O; Thiomorpholino(1,1-dioxo) = O=S1(=O)CCN(*)CC1; 3Oxa8azabicyclo(3.2.1)octane = C1CC2COCC1N2*; NMeAbu(4,4,4-F3) = CN[C@@H](CC(F)(F)F)C(=O)O; X135 = O=C([C@H](Cc1cc(F)ccc1F)N[*:1])[*:2]; NMeGly(cPent) = CN[C@H](C(=O)O)C1CCCC1; Phe(3-I) = N[C@@H](Cc1cccc(I)c1)C(=O)O; Pro(4,4-F2) = O=C(O)[C@@H]1CC(F)(F)CN1; NMeY = CN[C@@H](Cc1ccc(O)cc1)C(=O)O; NMeCha = CN[C@@H](CC1CCCCC1)C(=O)O; Hyp = O=C(O)[C@@H]1C[C@@H](O)CN1; NMeChg = CN[C@H](C(=O)O)C1CCCCC1; NMeI = CC[C@H](C)[C@H](NC)C(=O)O; NMeD = CN[C@@H](CC(=O)O)C(=O)O; NMeL = CN[C@@H](CC(C)C)C(=O)O; NMeAbu = CC[C@H](NC)C(=O)O; Morpholide = C1CN(*)CCO1; NMeA = CN[C@@H](C)C(=O)O; NMeAib = CNC(C)(C)C(=O)O; Nle = CCCC[C@H](N)C(=O)O; Piperidide = C1CCN(*)CC1; Pra = C#CC[C@H](N)C(=O)O; Pyrrolidide = C1CCN(*)C1; Ac5c = NC1(C(=O)O)CCCC1; Aze = O=C(O)[C@@H]1CCN1; Sar = CNCC(=O)O

Each compound was assayed on Human pancreatic cancer cell line AsPC-1 (G12D mutation Kras) (assay: AsPC-1 cell growth inhibition (AsPC-1 CGI)). Conditions: read-out: AsPC-1 cell growth inhibition, 50% growth inhibitory concentration (IC50 value); 96 hours, CellTiter-Glo, values classified in ranges.
Assay type: cell-based
Description: Test compounds were serially dilated with dimethyl sulfoxide, and 200 nL was then dispensed to a U-bottom 96-well plate using Labcyte Echo. […] The cell suspension was dispensed to a. plate containing a test compound at 100 μL per well and incubated at 37° C. in a 5% carbon dioxide gas incubator. 96 hours later, 80 μL of CellTiter-Glo (Promega) was added to each well and fluorescence was measured.
In the case of `CC[C@H](C)[C@@H]1NC(=O)[C@H](CC(C)C)N(C)C(=O)C[C@@H](C(=O)N2C3CCC2COC3)NC(=O)[C@H]([C@@H](C)CC)N(C)C(=O)C2(CCCC2)NC(=O)[C@@H]2CCCN2C(=O)[C@H](CCc2ccc(C(F)(F)F)c(Cl)c2)NC(=O)CN(C)C(=O)[C@H](CC2CCCCC2)N(C)C(=O)CN(C)C(=O)CN(C)C1=O` [Compound 1257] ([NMeL]I[Sar][Sar][NMeCha][Sar][hPhe(3-Cl-4-CF3)]P[Ac5c][NMeI]D-{3Oxa8azabicyclo(3.2.1)octane}; lactam N-11), the IC50 is reported as greater than 0.5 µM. In the case of `C#CC[C@@H]1NC(=O)[C@H](Cc2cccc(I)c2)NC(=O)CN(C)C(=O)[C@H](Cc2ccc(C(F)(F)F)cc2)N(C)C(=O)[C@@H]2CCN2C(=O)[C@H](C)N(C)C(=O)[C@H]([C@@H](C)CC)NC(=O)[C@H](CC(C)C)N(C)C(=O)C[C@@H](C(=O)N2CCCCC2)N(C)C(=O)[C@H](CC(C)C)NC(=O)C(C)(C)N(C)C1=O` [Compound 1258] ([NMeL]I[NMeA][Aze][NMePhe(4-CF3)][Sar][Phe(3-I)][Pra][NMeAib]L[NMeD]-Piperidide; lactam N-11), the IC50 is reported as greater than 0.5 µM. With `CC[C@H](C)[C@@H]1NC(=O)[C@H](CC(F)(F)F)N(C)C(=O)C[C@@H](C(=O)N2CCOCC2)N(C)C(=O)[C@H](C2CCCCC2)N(C)C(=O)C2(CCCC2)NC(=O)[C@@H]2CC(F)(F)CN2C(=O)[C@H](CCc2cc(F)c(C(F)(F)F)c(F)c2)NC(=O)CN(C)C(=O)[C@H](Cc2ccc(C(F)(F)F)cc2)N(C)C(=O)CN(C)C(=O)CN(C)C1=O` [Compound 1260] ([NMeAbu(4,4,4-F3)]I[Sar][Sar][NMePhe(4-CF3)][Sar][hPhe(3,5-F2-4-CF3)][Pro(4,4-F2)][Ac5c][NMeChg][NMeD]-Morpholide; lactam N-11) the IC50 was no more than 0.02 µM. In the case of `CCO[C@@H]1C[C@H]2C(=O)NC3(CCCC3)C(=O)N(C)[C@@H]([C@@H](C)CC)C(=O)N(C)[C@H](C(=O)N3CCOCC3)CC(=O)N(C)[C@@H](CC(C)C)C(=O)N[C@@H]([C@@H](C)CC)C(=O)N(C)[C@@H](C)C(=O)N3CC[C@H]3C(=O)N(C)[C@@H](Cc3ccc(C(F)(F)F)cc3)C(=O)N(C)CC(=O)N[C@@H](CCc3cc(F)c(C(F)(F)F)c(F)c3)C(=O)N2C1` [Compound 1261] ([NMeL]I[NMeA][Aze][NMePhe(4-CF3)][Sar][hPhe(3,5-F2-4-CF3)][Hyp](Et)[Ac5c][NMeI][NMeD]-Morpholide; lactam N-11), the IC50 is reported as no more than 0.02 µM. `CC[C@H](C)[C@@H]1NC(=O)[C@H](CC(C)C)N(C)C(=O)C[C@@H](C(=O)N2CCS(=O)(=O)CC2)N(C)C(=O)[C@H](C2CCCCC2)N(C)C(=O)C2(CCCC2)NC(=O)[C@@H]2CCCN2C(=O)[C@H](CCc2ccc(C(F)(F)F)c(Cl)c2)NC(=O)CN(C)C(=O)[C@H](CC2CCCCC2)N(C)C(=O)CN(C)C(=O)CN(C)C1=O` [Compound 1263] ([NMeL]I[Sar][Sar][NMeCha][Sar][hPhe(3-Cl-4-CF3)]P[Ac5c][NMeChg][NMeD]-{Thiomorpholino(1,1-dioxo)}; lactam N-11) gave an IC50 greater than 0.5 µM. `CCCC[C@@H]1NC(=O)[C@H](Cc2cc(F)ccc2F)NC(=O)CN(C)C(=O)[C@H](Cc2ccc(OC)cc2)N(C)C(=O)[C@@H]2CCN2C(=O)[C@H](C)N(C)C(=O)[C@H]([C@@H](C)CC)NC(=O)[C@H](CC)N(C)C(=O)C[C@@H](C(=O)N2CCCCC2)N(C)C(=O)[C@H](CC(C)C)NC(=O)C(C)(C)N(C)C1=O` [Compound 1268] ([NMeAbu]I[NMeA][Aze][NMeY](Me)[Sar][X135][Nle][NMeAib]L[NMeD]-Piperidide; lactam N-11) gave an IC50 greater than 0.5 µM. Compound `CC[C@H](C)[C@@H]1NC(=O)[C@H](CC(C)C)N(C)C(=O)C[C@@H](C(=O)N2CCCC2)N(C)C(=O)[C@H](C2CCCC2)N(C)C(=O)C2(CCCC2)NC(=O)[C@@H]2CC(F)(F)CN2C(=O)[C@H](CCc2ccc(C(F)(F)F)c(Cl)c2)NC(=O)CN(C)C(=O)[C@H](CC2CCCCC2)N(C)C(=O)CN(C)C(=O)CN(C)C1=O` [Compound 1270] ([NMeL]I[Sar][Sar][NMeCha][Sar][hPhe(3-Cl-4-CF3)][Pro(4,4-F2)][Ac5c][NMeGly(cPent)][NMeD]-Pyrrolidide; lactam N-11) has an IC50 of no more than 0.02 µM. With `CC[C@H](C)[C@@H]1NC(=O)[C@H](CC(C)C)N(C)C(=O)C[C@@H](C(=O)N2CCCCC2)NC(=O)[C@H](C2CCCCC2)N(C)C(=O)C2(CCCC2)NC(=O)[C@@H]2CCCN2C(=O)[C@H](CCc2ccc(C(F)(F)F)c(Cl)c2)NC(=O)CN(C)C(=O)[C@H](CC2CCCCC2)N(C)C(=O)CN(C)C(=O)CN(C)C1=O` [Compound 1274] ([NMeL]I[Sar][Sar][NMeCha][Sar][hPhe(3-Cl-4-CF3)]P[Ac5c][NMeChg]D-Piperidide; lactam N-11) the IC50 was greater than 0.5 µM. In the case of `CC[C@H](C)[C@@H]1NC(=O)[C@H](CC(C)C)N(C)C(=O)C[C@@H](C(=O)N2CCOCC2)NC(=O)[C@H]([C@@H](C)CC)N(C)C(=O)C2(CCCC2)NC(=O)[C@@H]2CCCN2C(=O)[C@H](CCc2ccc(C(F)(F)F)c(Cl)c2)NC(=O)CN(C)C(=O)[C@H](CC2CCCCC2)N(C)C(=O)CN(C)C(=O)CN(C)C1=O` [Compound 1277] ([NMeL]I[Sar][Sar][NMeCha][Sar][hPhe(3-Cl-4-CF3)]P[Ac5c][NMeI]D-Morpholide; lactam N-11), the IC50 is reported as greater than 0.5 µM.
